Measurements published in US6737383B1, “Herbicidal oxadiazolidines” (priority 1999, dated 2004).

What was measured:
smallflower flatsedge = test: Test B flood test smallflower flatsedge; type: in vivo, Cyperus difformis
How it was run: (§1)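 Each value is a visual injury score relative to controls, with 10 meaning complete control and 0 no effect. Evaluation took place twelve to sixteen days after the 2-leaf-stage plants were treated and kept in the greenhouse.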

bedstraw = test: Test B pre/postemergence bedstraw; type: in vivo, Galium aparine; details: Preemergence
How it was run: (§2)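 Herbicidal effect was estimated by eye on a ten-point control scale after plants spent twelve to sixteen days in a greenhouse following soil or foliar treatment. Foliar sprays targeted plants at one to four leaves; all doses were formulated in a non-phytotoxic solvent with surfactant.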

morningglory = test: Test B pre/postemergence morningglory; type: in vivo, Ipomoea hederacea
How it was run: as §2

purple nutsedge = test: Test B pre/postemergence purple nutsedge; type: in vivo, Cyperus rotundus
How it was run: as §2

pigweed = test: Test B pre/postemergence pigweed; type: in vivo, Amaranthus retroflexus
How it was run: as §2

wild oat = test: Test B pre/postemergence wild oat; type: in vivo, Avena fatua
How it was run: as §2

crabgrass = test: Test B pre/postemergence crabgrass; type: in vivo, Digitaria sanguinalis
How it was run: as §2

corn = test: Test B pre/postemergence corn; type: in vivo, Zea mays
How it was run: as §2

rice = test: Test B flood test rice; type: in vivo, Oryza sativa
How it was run: as §1

surinam grass = test: Test B pre/postemergence surinam grass; type: in vivo, Brachiaria decumbens
How it was run: as §2

velvetleaf = test: Test B pre/postemergence velvetleaf; type: in vivo, Abutilon theophrasti
How it was run: as §2

bamyardgrass = test: Test B flood test barnyardgrass; type: in vivo, Echinochloa crus-galli
How it was run: as §1

wheat = test: Test B pre/postemergence wheat; type: in vivo, Triticum aestivum
How it was run: as §2

giant foxtail = test: Test B pre/postemergence giant foxtail; type: in vivo, Setaria faberii
How it was run: as §2

rape = test: Test B pre/postemergence rape; type: in vivo, Brassica napus
How it was run: as §2

duck salad = test: Test B flood test duck salad; type: in vivo, Heteranthera limosa
How it was run: as §1

sugar beet = test: Test B pre/postemergence sugar beet; type: in vivo, Beta vulgaris
How it was run: as §2

blackgrass = test: Test B pre/postemergence blackgrass; type: in vivo, Alopecurus myosuroides
How it was run: as §2

cocklebur = test: Test B pre/postemergence cocklebur; type: in vivo, Xanthium strumarium
How it was run: as §2

soybean = test: Test B pre/postemergence soybean; type: in vivo, Glycine max
How it was run: as §2

[1] = Rate 62 g/ha, flood test species, Pre-emergence, visual evaluation after twelve to sixteen days
[2] = Rate 125 g/ha, under heading Pre-emergence, flood test species, visual evaluation after twelve to sixteen days
[3] = Rate 250 g/ha, Pre-emergence (flood test species), scale 0 to 10, 0 is no effect, 10 is complete control
[4] = Rate 500 g/ha, Pre-emergence, flood test species, scale 0 to 10 (0 no effect, 10 complete control)
[5] = Postemergence, Rate 250 g/ha, scale 0 to 10, 0 is no effect, 10 is complete control
[6] = Postemergence, Rate 500 g/ha, scale of 0 to 10 where 0 is no effect and 10 is complete control
[7] = Preemergence, Rate 62 g/ha, scale 0 to 10 (0 no effect, 10 complete control)
[8] = Preemergence, Rate 125 g/ha, scale of 0 to 10 where 0 is no effect and 10 is complete control
[9] = Preemergence, Rate 250 g/ha, scale 0 to 10, 0 is no effect, 10 is complete control
[10] = Preemergence, Rate 500 g/ha, scale 0 to 10, 0 is no effect, 10 is complete control
[11] = Postemergence, Rate 125 g/ha, scale 0 to 10, 0 is no effect, 10 is complete control
[12] = Rate 62 g/ha, Postemergence, scale of 0 to 10 where 0 is no effect and 10 is complete control
[13] = Preemergence, Rate 250 g/ha, scale of 0 to 10 where 0 is no effect and 10 is complete control

SMILES: C=CC[Si](C)(C)Cn1c(=O)on(C(=O)N(c2ccc(Cl)cc2)C(C)C)c1=O [Compound 414]
- Plant response rating, S. Flatsedge (0 to 10 scale, 0 is no effect, 10 is complete control) (smallflower flatsedge; [1]): 0
- S. Flatsedge plant response rating (0 to 10 scale, 0 is no effect, 10 is complete control) (smallflower flatsedge; [2]): 0
- S. Flatsedge plant response rating (smallflower flatsedge; [3]): 0
- S. Flatsedge plant response rating (smallflower flatsedge; [4]): 0
- Plant response rating, Bedstraw (bedstraw; Rate 62 g/ha, scale 0 to 10 (0 no effect, 10 complete control)): 0
- Plant response rating, Bedstraw (bedstraw; Rate 125 g/ha, scale of 0 to 10 where 0 is no effect and 10 is complete control): 0
- Bedstraw plant response rating (bedstraw; Rate 250 g/ha, scale of 0 to 10 where 0 is no effect and 10 is complete control): 0
- Bedstraw plant response rating (bedstraw; Rate 500 g/ha, scale 0 to 10, 0 is no effect, 10 is complete control): 0
- Plant response rating, Morningglory (morningglory; [5]): 7
- Morningglory plant response rating (morningglory; [6]): 8
- Plant response rating, Morningglory (morningglory; [7]): 0
- Plant response rating, Morningglory (morningglory; [8]): 0
- Morningglory plant response rating (morningglory; [9]): 0
- Morningglory plant response rating (morningglory; [10]): 0
- Plant response rating, Nutsedge (purple nutsedge; [5]): 0
- Nutsedge plant response rating (purple nutsedge; [6]): 0
- Plant response rating, Nutsedge (purple nutsedge; [7]): 0
- Plant response rating, Nutsedge (purple nutsedge; [8]): 0
- Nutsedge plant response rating (purple nutsedge; [9]): 0
- Plant response rating, Redroot pigweed (pigweed; [5]): 0
- Redroot pigweed plant response rating (pigweed; [6]): 0
- Plant response rating, Redroot pigweed (pigweed; [7]): 0
- Plant response rating, Redroot pigweed (pigweed; [8]): 0
- Redroot pigweed plant response rating (pigweed; [9]): 0
- Redroot pigweed plant response rating (pigweed; [10]): 0
- Wild oats plant response rating (wild oat; [6]): 2
- Plant response rating, Wild oats (wild oat; [7]): 0
- Plant response rating, Wild oats (wild oat; [8]): 0
- Wild oats plant response rating (wild oat; [9]): 2
- Wild oats plant response rating (wild oat; [10]): 7
- Plant response rating, Crabgrass (crabgrass; [11]): 3
- Plant response rating, Crabgrass (crabgrass; [5]): 6
- Crabgrass plant response rating (crabgrass; [6]): 9
- Plant response rating, Crabgrass (crabgrass; [7]): 2
- Plant response rating, Crabgrass (crabgrass; [8]): 7
- Crabgrass plant response rating (crabgrass; [9]): 9
- Crabgrass plant response rating (crabgrass; [10]): 10
- Crabgrass plant response rating (crabgrass; [12]): 1
- Plant response rating, Corn (corn; [11]): 0
- Plant response rating, Corn (corn; [5]): 0
- Corn plant response rating (corn; [6]): 0
- Plant response rating, Corn (corn; [7]): 0
- Plant response rating, Corn (corn; [8]): 0
- Corn plant response rating (corn; [9]): 0
- Corn plant response rating (corn; [10]): 0
- Corn plant response rating (corn; [12]): 0
- Plant response rating, Rice (0 to 10 scale, 0 is no effect, 10 is complete control) (rice; [1]): 0
- Rice plant response rating (0 to 10 scale, 0 is no effect, 10 is complete control) (rice; [2]): 0
- Rice plant response rating (rice; [3]): 0
- Rice plant response rating (rice; [4]): 0
- Plant response rating, B. signalgrass (surinam grass; [11]): 0
- Plant response rating, B. signalgrass (surinam grass; [5]): 1
- B. signalgrass plant response rating (surinam grass; [6]): 6
- Plant response rating, B. signalgrass (surinam grass; [7]): 0
- Plant response rating, B. signalgrass (surinam grass; [8]): 0
- B. signalgrass plant response rating (surinam grass; [13]): 1
- B. signalgrass plant response rating (surinam grass; Preemergence, Rate 500 g/ha, scale of 0 to 10 where 0 is no effect and 10 is complete control): 5
- B. signalgrass plant response rating (surinam grass; [12]): 0
- Plant response rating, Velvetleaf (velvetleaf; [5]): 0
- Velvetleaf plant response rating (velvetleaf; [6]): 0
- Plant response rating, Velvetleaf (velvetleaf; [7]): 0
- Plant response rating, Velvetleaf (velvetleaf; [8]): 0
- Velvetleaf plant response rating (velvetleaf; [9]): 0
- Velvetleaf plant response rating (velvetleaf; [10]): 0
- Plant response rating, Barnyardgrass (0 to 10 scale, 0 is no effect, 10 is complete control) (bamyardgrass; [1]): 0
- Barnyardgrass plant response rating (0 to 10 scale, 0 is no effect, 10 is complete control) (bamyardgrass; [2]): 0
- Barnyardgrass plant response rating (bamyardgrass; [3]): 0
- Barnyardgrass plant response rating (bamyardgrass; [4]): 0
- Wheat plant response rating (wheat; [6]): 0
- Plant response rating, Wheat (wheat; [7]): 0
- Plant response rating, Wheat (wheat; [8]): 0
- Wheat plant response rating (wheat; [9]): 0
- Wheat plant response rating (wheat; [10]): 0
- Plant response rating, Giant foxtail (giant foxtail; [5]): 6
- Giant foxtail plant response rating (giant foxtail; [6]): 9
- Plant response rating, Giant foxtail (giant foxtail; [7]): 2
- Plant response rating, Giant foxtail (giant foxtail; [8]): 9
- Giant foxtail plant response rating (giant foxtail; [9]): 10
- Giant foxtail plant response rating (giant foxtail; [10]): 10
- Giant foxtail plant response rating (giant foxtail; [12]): 3
- Plant response rating, Rape (rape; [5]): 0
- Rape plant response rating (rape; [6]): 0
- Plant response rating, Rape (rape; [7]): 0
- Plant response rating, Rape (rape; [8]): 0
- Rape plant response rating (rape; [9]): 0
- Rape plant response rating (rape; [10]): 0
- Plant response rating, Ducksalad (0 to 10 scale, 0 is no effect, 10 is complete control) (duck salad; [1]): 0
- Ducksalad plant response rating (0 to 10 scale, 0 is no effect, 10 is complete control) (duck salad; [2]): 0
- Ducksalad plant response rating (duck salad; [3]): 0
- Ducksalad plant response rating (duck salad; [4]): 0
- Plant response rating, Sugarbeets (sugar beet; [5]): 0
- Sugarbeets plant response rating (sugar beet; [6]): 0
- Plant response rating, Sugarbeets (sugar beet; [7]): 0
- Plant response rating, Sugarbeets (sugar beet; [8]): 0
- Sugarbeets plant response rating (sugar beet; [9]): 0
- Sugarbeets plant response rating (sugar beet; [10]): 0
- Plant response rating, Blackgrass (blackgrass; [11]): 2
- Plant response rating, Blackgrass (blackgrass; [5]): 5
- Blackgrass plant response rating (blackgrass; [6]): 7
- Plant response rating, Blackgrass (blackgrass; [7]): 0
- Plant response rating, Blackgrass (blackgrass; [8]): 0
- Blackgrass plant response rating (blackgrass; [13]): 3
- Blackgrass plant response rating (blackgrass; [10]): 10
- Blackgrass plant response rating (blackgrass; [12]): 0
- Plant response rating, Cocklebur (cocklebur; [11]): 0
- Plant response rating, Cocklebur (cocklebur; [5]): 0
- Cocklebur plant response rating (cocklebur; [6]): 0
- Plant response rating, Cocklebur (cocklebur; [7]): 0
- Plant response rating, Cocklebur (cocklebur; [8]): 0
- Cocklebur plant response rating (cocklebur; [9]): 0
- Cocklebur plant response rating (cocklebur; [10]): 0
- Cocklebur plant response rating (cocklebur; [12]): 0
- Plant response rating, Soybean (soybean; [5]): 2
- Soybean plant response rating (soybean; [6]): 3
- Plant response rating, Soybean (soybean; [7]): 0
- Plant response rating, Soybean (soybean; [8]): 0
- Soybean plant response rating (soybean; [9]): 0
- Soybean plant response rating (soybean; [10]): 0
